Series [1] concerns platelet procoagulant activity. As to the kind of experiment: Inhibition of platelet procoagulant activity. The series is classed as cell-based. The text has this: Platelet pro-coagulant activity may be observed as the increase, in rate of activation of prothrombin by factor Xa in the presence of factor Va upon the addition of platelets pretreated with thrombin, caused by thrombin alone, collagen alone or a mixture of thrombin and collagen. This property is due to an increase in anionic phospholipid on the surface of the platelet with concomitant release of microvesicle from the surface. This is an essential physiological reaction and people whose platelets have reduced ability to generate procoagulant activity (Scott syndrome) show an increased tendency for bleeding.
Washed platelets were treated with either 1.15nM thrombin, 23µg/ml collagen or a mixture of both at the same concentration at 37°C. TRI 50b was added either for 1 minute prior to the addition of activator or immediately after the incubation with activator. Platelet procoagulant activity was determined as described previously (Goodwin C A et al, Biochem J. 1995 8, 308: 15-21).

In a further series the test system is washed platelets. As to the kind of experiment: Aggregation of washed platelets. Type of series: cell-based.
The next series relates to platelet rich thrombus. The series can be described thus: Rabbit extracorporeal shunt model. Type of series: in vivo, NZW rabbits. Particulars: for THROMBUS WEIGHT AFTER 20 minute run: n=5. The text has this:
The technique describes an animal model in which a platelet rich thrombus is produced. The activity of TRI 50b and heparin are compared.
The carotid artery and jugular vein of anaesthetised rabbits were used to create an extracorporeal circuit containing a suspended foreign surface (silk thread). Thrombus deposition is initiated by creation of high sheer stress turbulent arterial blood flow, platelet activation, followed by coagulation in the presence of thrombogenic surfaces. Histopathological studies have shown that the thrombus is platelet rich.
NZW rabbits (males 2.5-3.5 kg) were used. The animals were allowed food and water up to the induction of anaesthesia.
Animals were premedicated with […] (Hypnorm) 0.15 ml total by intramuscular injection. General anaesthesia was induced with methohexitone (10 mg/ml) to effect, followed by endotracheal intubation. Anaesthesia was maintained with isoflurane (1-2.0 %) carried in oxygen /nitrous oxide.
The animals were placed in dorsal recumbency and the ventral cervical region prepared for surgery. The left carotid artery and right jugular vein were exposed. The artery was cannulated with a large Portex® catheter (yellow gauge), cut to a suitable length. The vein was cannulated with a Silastic® catheter. The shunt comprised of a 5 cm length of 'auto analyser' line (purple /white gauge). Joins to the shunt on the arterial side were made with intermediate size Silastic® tubing. The shunt was filled with saline before exposure to the circulation. The right femoral artery was cannulated for the measurement of blood pressure.
The central section of the shunt contained a thread 3 centimetres in length. This consisted of 000 gauge Gutterman sewing silk so as to give four strands with a single knot at the end. (The knot section was outside the shunt).
Blood flow velocity was determined by use of 'Doppler' probes (Crystal Biotech). A silastic probe was positioned over the carotid artery at the point of insertion of the arterial catheter. Flow was recorded on a chart recorder using heat sensitive paper.

A short description of series [2]: Hydrolysis under HPLC assay conditions. The series is classed as physicochemical. Particulars: acid conditions / sample preparation of an HPLC assay.
Series [3] is described as follows: i.v. pharmacokinetics in rats. To be noted: rat.
Protocol: (§1) Rats, body weight circa 250-300g were used. The animals were fasted only on the day of use for the iv stage.
(§2) Just before administration, 5 volumes of this solution is mixed with 3 volumes of 5% kollidon 17 8F.
(§3) Both compounds were given at a dose of 1.0mg/kg iv.
(§4) The compounds were dosed in a PEG/ethanol/kollidon formulation which was prepared immediately before, as described immediately under the heading "Dose": Stock 15.0mg/ml. This was dosed at 1.33ml/kg (equivalent to 30mg/kg).
(§5) A pre dose sample was taken followed by: 0, 2, 5, 10, 20, 30, 40, 60 and 90 minutes post dose.
(§6) This was obtained by centrifugation (3000 RPM for 10 min) and stored at -20°C prior to analysis.
Series [4] can be described thus: Stability: HPLC-PDA assay before and after drying. The series is classed as physicochemical. To be noted: for Amount: 5 mg in 5 mL. As for the experimental part:
An assay of TRI 50c and its sodium and lysine salts before and after drying.
For sample analysis, 5 mg of dried and non-dried material was weighed in a 5 mL volumetric flask and dissolved in 1 mL acetonitrile and filled up with demineralised water to 5 mL.
The quantitative evaluation was performed using an HPLC-PDA method.

In another series the test system is thrombin time and APTT. Type of series: in vivo, beagle dogs. Particulars: dog. As for the experimental part: Plasma was prepared by centrifugation and frozen at minus 20°C pending analysis.
For series [5] the following is noted: rat, in vivo, iv, 1 mg/kg.
Protocol: as §1, §2, §3, §4, §5, §6
Series [6] can be described thus: Maximum aqueous solubility (shaken in water at 37°C, filtered, UV spectrum). To be noted: read-out: Solubility when dissolved at 50mg/ml. The series is classed as physicochemical.
Another series addresses T1, thrombin (Homo sapiens, UniProt P00734).
T1 construct: purchased HTI, via Cambridge Bioscience
The series can be described thus: Thrombin amidolytic assay (S2238, Vmax). To be noted: TRI 50b as external control; Fig. 1. Type of series: biochemical. As for the experimental part: Chromogenic substrate S2238 dissolved to 4mM (25mg + 10ml) in water. Diluted to 50uM with assay buffer for use in assay at 5µM. (S2238 is H-D-Phe-Pip-Arg-pNA).
Thrombin obtained from HTI, via Cambridge Bioscience, and aliquoted at 1mg/ml with assay buffer. Dilute to 100ng/ml with assay buffer and then a further 1 in 3 for use in the assay.
• 110µl assay buffer • 50ul 5µg/ml thrombin • 20µl vehicle or compound solution • 5 min at 37°C • 20µl 50µM S2238

[7] abbreviates: dry (desiccator over phosphorus pentoxide for 1 week).
[8] abbreviates: dry (desiccator over phosphorus pentoxide for 1 week), listed as TRI 50c Na salt, monosodium salt.
Where [9] appears, read: non-dried, listed as TRI 50c Na salt, monosodium salt.

Structures can show the parent of a compound that is named as a salt. Where two headings read alike, the source gives them in different places.

For orientation: Vd means the apparent volume that relates the amount in the body to the concentration in plasma or blood. Read a high Vd as wide distribution into tissue. With `COCCC[C@H](NC(=O)[C@@H]1CCCN1C(=O)[C@@H](Cc1ccccc1)NC(=O)OCc1ccccc1)B1OC(C)(C)C(C)(C)O1` [TRI 50b, Cbz-(R)-Phe-Pro-BoroMpg-OPinacol], the IC50 in series [1] (agonist Collagen (23µg/ml), TRI 50b added 1 minute prior to activator, read-out: I C50 plus pre-incubation) was 200 nM; in [1] (agonist Collagen (23µg/ml), TRI 50b added after incubation with activator, read-out: I C50 without incubation), 300 nM; in series [1] (agonist Thrombin/Collagen, TRI 50b added 1 minute prior to activator, read-out: I C50 plus pre-incubation), 3 nM; in series [1] (agonist Thrombin/Collagen, TRI 50b added after incubation with activator, read-out: I C50 without incubation), 80 nM. Besides, the “effect on ADP, collagen or epinephrine induced aggregation” value in the series on washed platelets is recorded as “does not have an effect”. Also, the “THROMBUS WEIGHT AFTER 20 minute run” value was 15.3 ±2.2 mg(n=5) in the series on platelet rich thrombus (3.0mg/kg iv) and 9.78 ±1.9 mg(n=5) in the series with platelet rich thrombus (10mg/kg iv). For the same compound, the bleeding entry in the series with platelet rich thrombus (3mg/kg to 10mg/kg iv) was “without bleeding”. The “hydrolysis to the acid form (TRI 50c)” value in series [2] is on record as “short half life”. For the same compound, the Area under curve in [3] (1.0mg/kg iv, n=3) came to 1.68. In addition, the “Max Plasma Concentration (observed)” value in [3] (1.0mg/kg iv, n=3) amounted to 2.24. Further, in series [3] (plasma, iv, 1 mg/kg), the Vd is 0.5 L/kg.
As for `COCCC[C@H](NC(=O)[C@@H]1CCCN1C(=O)[C@@H](Cc1ccccc1)NC(=O)OCc1ccccc1)B(O)O` [TRI 50c Lys salt], in series [4] (setting [7]), the “Purity (% area)” value amounted to 90.17 % area and the Amount turned out to be 813.3 µg/mL. Moreover, in series [4] (non-dried), the “Purity (% area)” value turned out to be 92.25 % area and the Amount is 809.8 µg/mL.
`COCCC[C@H](NC(=O)[C@@H]1CCCN1C(=O)[C@@H](Cc1ccccc1)NC(=O)OCc1ccccc1)B(O)O` [TRI 50c sodium salt, Cbz-(R)-Phe-(S)-Pro-(R)-Mpg-B(OH)2 monosodium salt]: the Amount came to 1024 µg/mL in series [4] (setting [8]) and 1005.8 µg/mL in series [4] (setting [9]). Besides, the results for the “Purity (% area)” value in series [4] (setting [8]) and in series [4] (setting [9]) were 98.81 % area and 98.61 % area, respectively. Also, the thrombin time stood at 154.4 s in the series on thrombin time and APTT (1.0 mg/kg i.v., 2 minutes post dose, base line 14.3 seconds, listed as sodium salt, monosodium salt, 1 mg/kg); 154 s in the series on thrombin time and APTT (1.0 mg/kg i.v., 2 minutes post dose, base line 14.3 seconds, monosodium salt, 1 mg/kg); 26 s in the series on thrombin time and APTT (1.0 mg/kg i.v., one hour post dose). In addition, the “elevation in the APTT” value in the series with thrombin time and APTT (1.0 mg/kg i.v., post dose) worked out at 1.3 times. Besides, the APTT with thrombin time and APTT (1.0 mg/kg i.v., post dose, base line 19 seconds) is 25 s. In addition, in the series with thrombin time and APTT (1.0 mg/kg i.v., two minutes following dosing), the “Thrombin clotting time elevation above base line” value was 10.8 times. Further, the “tolerability / adverse events” value in the series with thrombin time and APTT (in vivo, iv, 1 mg/kg) is recorded as “tolerated well with no adverse events”.
For `COCCC[C@H](NC(=O)[C@@H]1CCCN1C(=O)[C@@H](Cc1ccccc1)NC(=O)OCc1ccccc1)B(O)O` [TRI 50c, Cbz-(R)-Phe-(S)-Pro-(R)-boroMpg-OH], in [4] (setting [7]), the “Purity (% area)” value turned out to be 82.00 % area and the Amount turned out to be 1000.0 µg/mL. In addition, in series [5], the Area under curve was 1.48, the “Max Plasma Concentration (observed)” value is given as 2.35 and the “Volume Distribution” value is 0.59 L/kg.
For `COCCC[C@H](NC(=O)[C@@H]1CCCN1C(=O)[C@@H](Cc1ccccc1)NC(=O)OCc1ccccc1)B(O)O` [lithium salt], the solubility in series [6] was 43 mg/mL.
As to `COCCC[C@H](NC(=O)[C@@H]1CCCN1C(=O)[C@@H](Cc1ccccc1)NC(=O)OCc1ccccc1)B(O)O` [magnesium salt of TRI 50c], the “activity in thrombin amidolytic assay” value on thrombin was “the same activity as TRI 50b”.

The values are drawn from patent EP1695711A2, “Parenteral formulations comprising boronic acid species for selective thrombin inhibition” (TRIGEN LIMITED, priority 2002, dated 2004).
